Values after ≈ are worked out from the molar mass of the structure shown.

The subject of one data set is bacteria. As to conditions: compared with the thiomarinol derivatives or with pseudomonic acid; cited from earlier work.
Another data set concerns tumor. As to conditions: Japanese Patent Kokai Application Number Sho 63-27484; cited from earlier work.
The subject of data set [1] is Morcranella morganii 1510. Briefly: MIC, agar medium dilution method (Test Example 1). In kind it is cell-based. Conditions: nutrient agar. As for the experimental part:
(§1) The minimum inhibitory concentration (MIC) of thiomarinol, thiomarinol B, thiomarinol C and pseudomonic acid A (identified as "A", "B", "C" and "P", respectively) given as μg/ml, against gram-positive and gram-negative bacteria was determined by the agar medium dilution method, using a nutrient agar medium (Product of Eiken Chemical Co., Ltd.).

The test system of data set [2] is Klebsiella pneumoniae 846 (R). Briefly: MIC, agar medium dilution method (Test Example 1). Conditions: nutrient agar. In kind it is cell-based. As for the experimental part: as §1
The test system of a further data set is Enterobacter cloacae 963. Briefly: MIC, agar medium dilution method (Test Example 1). In kind it is cell-based. Conditions: nutrient agar. As for the experimental part: as §1
For data set [3], the system named is Pseudomonas aerucrinosa 1001. The data set can be described thus: MIC, agar medium dilution method (Test Example 1). In kind it is cell-based. As to conditions: nutrient agar. As for the experimental part: as §1
The test system of a further data set is Escherichia coli 609. The data set can be described thus: MIC, agar medium dilution method (Test Example 1). As to conditions: nutrient agar. Type of data set: cell-based. As for the experimental part: as §1
Data set [4] concerns Pseudomonas aerucrinosa No. 7. The data set can be described thus: MIC, agar medium dilution method (Test Example 1). In kind it is cell-based. As to conditions: nutrient agar. As for the experimental part: as §1
Data set [5] deals with Staphylococcus aureus 535 (MRSA). The data set can be described thus: MIC, agar medium dilution method (Test Example 1). Conditions: nutrient agar. Type of data set: cell-based. As for the experimental part: as §1
Data set [6] deals with Staphylococcus aureus 209P. Briefly: MIC, agar medium dilution method (Test Example 1). In kind it is cell-based. Conditions: nutrient agar. As for the experimental part:
as §1

For a further data set, the system named is Serratia marcescens 1184. Briefly: MIC, agar medium dilution method (Test Example 1). Type of data set: cell-based. Conditions: nutrient agar. As for the experimental part:
as §1

Another data set relates to Escherichia coli NIHJ. The data set can be described thus: MIC, agar medium dilution method (Test Example 1). In kind it is cell-based. Conditions: nutrient agar. As for the experimental part:
as §1

For data set [7], the system named is Enterococcus faecalis 681. The data set can be described thus: MIC, agar medium dilution method (Test Example 1). As to conditions: nutrient agar. In kind it is cell-based. As for the experimental part: as §1
In data set [8] the test system is Klebsiella pneumoniae 806. Briefly: MIC, agar medium dilution method (Test Example 1). In kind it is cell-based. Conditions: nutrient agar. As for the experimental part: as §1
The subject of data set [9] is Staphylococcus aureus 56R. The data set can be described thus: MIC, agar medium dilution method (Test Example 1). In kind it is cell-based. Conditions: nutrient agar. As for the experimental part:
as §1

In the next data set the test system is Salmonella enteritidis. The data set can be described thus: MIC, agar medium dilution method (Test Example 1). In kind it is cell-based. Conditions: Salmonella enterica, nutrient agar. As for the experimental part: as §1
A further data set concerns Proteus vulgaris 1420. Briefly: MIC, agar medium dilution method (Test Example 1). Type of data set: cell-based. Conditions: nutrient agar. As for the experimental part:
as §1

The nature of the next data set: Solubility. In kind it is physicochemical. As to conditions: for solubility (insoluble in): hexane and water; for solubility (soluble in): organic solvents.
The subject of data set [10] is Mycoplasma hyosynoviae S-16. Briefly: Antimycoplasmal MIC (Test Example 2). In kind it is cell-based. As to conditions: S16, 120 h, Mucin PPLO agar medium, 15% horse serum, 0.005 ml of 10^5 CFU/ml, 37° C., 5 days. As for the experimental part: Following the same procedure as for Test Example 1, the activity of thiomarinol, thiomarinol B, thiomarinol C and pseudomonic acid A (identified as "A", "B", "C" and "P", respectively) was assayed against various species of mycoplasma. Inoculum: 0.005 ml of 10^5 CFU/ml Thiomarinol B, Thiomarinol C and Pseudomonic acid A were all assayed on Chanock medium [prepared as described in P.N.A.S., 48, 41-49 (1962) and supplemented with 20% horse serum] for all microorganisms; Thiomarinol was assayed on the following media: M. hyosynoviae: Mucin PPLO* agar medium (15% horse serum supplemented) |*PPLO ( -- Pleuro -- Pneumonia- -- Like -- Organism) |PPLO Broth without CV (Difco) | 21 g |Mucin bacteriological (Difco) | 5 g |Distilled water 800 ml |Agar Noble (Difco) 12 g |Equine serum 150 ml |25% Fresh yeast extract | 50 ml Culture conditions: 37° C., 5 days, slightly aerobic (BBL gas pack method [cultivation in disposable CO2 generator from Becton Dickinson Microbiology Systems, Cockeysville, Md. 2103 U.S.A.])

The subject of data set [11] is gram-positive and gram-negative bacteria. The data set can be described thus: Antibacterial activity, overall comparison. Type of data set: cell-based. Conditions: for antibacterial activity compared with pseudomonic acid A: general statement. As for the experimental part:
as §1

For data set [12], the system named is Pseudomonas aeruginosa 3719. The data set can be described thus: MIC, agar medium dilution method (Test Example 1). Type of data set: cell-based. As to conditions: nutrient agar. As for the experimental part: as §1
Data set [13] relates to Mycoplasma hyorhinis BTS 7. Briefly: Antimycoplasmal MIC (Test Example 2). Type of data set: cell-based. Conditions: BTS7, 120 h, Chanock medium, 20% horse serum, 0.005 ml of 10^5 CFU/ml, 37° C., 5 days. As for the experimental part:
Following the same procedure as for Test Example 1, the activity of thiomarinol, thiomarinol B, thiomarinol C and pseudomonic acid A (identified as "A", "B", "C" and "P", respectively) was assayed against various species of mycoplasma. Inoculum: 0.005 ml of 10^5 CFU/ml Thiomarinol B, Thiomarinol C and Pseudomonic acid A were all assayed on Chanock medium [prepared as described in P.N.A.S., 48, 41-49 (1962) and supplemented with 20% horse serum] for all microorganisms; Culture conditions: 37° C., 5 days, slightly aerobic (BBL gas pack method [cultivation in disposable CO2 generator from Becton Dickinson Microbiology Systems, Cockeysville, Md. 2103 U.S.A.])

The test system of a further data set is mycoplasma. The data set can be described thus: Anti-mycoplasmal activity, overall comparison. In kind it is cell-based. As to conditions: compared with thiomarinol and pseudomonic acid A; Table 2. As for the experimental part: Following the same procedure as for Test Example 1, the activity of thiomarinol, thiomarinol B, thiomarinol C and pseudomonic acid A (identified as "A", "B", "C" and "P", respectively) was assayed against various species of mycoplasma.

For `CC(=CC(=O)OCCCCCCCCC(=O)O)CC1OCC(CC=CC(C)C(C)O)C(O)C1O` (stereo not drawn) [pseudomonic acid C], the “antibacterial activity of prior art compounds” value in the data set on bacteria is given as “weaker antibacterial activities than do the thiomarinol derivatives of the present invention”.

As to `O=C1CCC(=O)N(O)CCCCCNC(=O)CCC(=O)N(O)CCCCCN1` [bisucaberin], the antitumor activity entry in the data set with tumor was “exhibit antitumor activity”.

Regarding `C/C(=C\C(=O)OCCCCCCCCC(=O)O)C[C@@H]1OC[C@](O)(C[C@@H]2O[C@H]2[C@@H](C)[C@H](C)O)[C@@H](O)[C@H]1O` [pseudomonic acid B], in the data set with bacteria, the “antibacterial activity of prior art compounds” value is “weaker antibacterial activities than do the thiomarinol derivatives of the present invention”.

As a reminder, the MIC is the smallest concentration in the dilution series that meets the test's criterion for growth inhibition. The low end stands for a more susceptible organism, the high end for a less susceptible organism. Take `C/C(=C\C(=O)OCCCCCCCC(=O)Nc1c2sscc-2[nH]c1=O)C(O)C1OCC(C/C=C/C(C)C(C)O)C(O)C1O` (stereo not drawn) [thiomarinol]: the MIC worked out at 6.2 µg/mL (≈ 9.68 µM) in data set [1]; 0.2 µg/mL (≈ 0.312 µM) in [2]; 1.5 µg/mL (≈ 2.34 µM) against Enterobacter cloacae 963; 0.2 µg/mL (≈ 0.312 µM) in [3]; 0.8 µg/mL (≈ 1.25 µM) against Escherichia coli 609; 0.4 µg/mL (≈ 0.624 µM) in data set [4]. The MIC in data set [5] is no more than 0.01 µg/mL; in data set [6], no more than 0.01 µg/mL; in the data set with Serratia marcescens 1184 it was 3.1 µg/mL (≈ 4.84 µM); in the data set on Escherichia coli NIHJ, 0.8 µg/mL (≈ 1.25 µM); in data set [7] it was 0.02 µg/mL (≈ 0.0312 µM); in [8] it was 0.8 µg/mL (≈ 1.25 µM). For the same molecule, the MIC is no more than 0.01 µg/mL in [9], 0.4 µg/mL (≈ 0.624 µM) against Salmonella enteritidis, 0.05 µg/mL (≈ 0.078 µM) in the data set with Proteus vulgaris 1420 and 0.025 µg/mL (≈ 0.039 µM) in data set [10]. In addition, the “solubility (insoluble in)” value in “Solubility” is “insoluble in hexane and water”. In addition, in “Solubility”, the “solubility (soluble in)” value is “Soluble in alcohols such as methanol, ethanol, propanol and butanol; and soluble in dimethyl sulfoxide, dimethylformamide, chloroform, ethyl acetate, acetone and diethyl ether”. For the same molecule, the “antibacterial activity compared with pseudomonic acid A” value in data set [11] is listed as “significantly more potent antibacterial activity than does pseudomonic acid A”.

Regarding `C/C(=C\C(=O)OCCCCCCCC(=O)Nc1c2sscc-2[nH]c1=O)CC1OCC(C/C=C/C(C)C(C)O)C(O)C1O` (stereo not drawn) [thiomarinol C], the minimum inhibitory concentration (MIC) in data set [1] was 12.5 µg/mL (≈ 20 µM); in [2], 0.8 µg/mL (≈ 1.28 µM); with Enterobacter cloacae 963 it was 3.1 µg/mL (≈ 4.96 µM); in data set [3], 0.8 µg/mL (≈ 1.28 µM); with Escherichia coli 609, 1.5 µg/mL (≈ 2.4 µM); in [4], 0.8 µg/mL (≈ 1.28 µM). Further, the MIC in data set [12] is 0.4 µg/mL (≈ 0.64 µM); in [5], no more than 0.01 µg/mL; in [6], no more than 0.01 µg/mL; against Serratia marcescens 1184 it was 6.2 µg/mL (≈ 9.92 µM); against Escherichia coli NIHJ, 3.1 µg/mL (≈ 4.96 µM); in data set [7], 0.8 µg/mL (≈ 1.28 µM). In addition, the MIC is 1.5 µg/mL (≈ 2.4 µM) in data set [8]; no more than 0.01 µg/mL in data set [9]; 1.5 µg/mL (≈ 2.4 µM) in the data set on Salmonella enteritidis; 0.2 µg/mL (≈ 0.32 µM) with Proteus vulgaris 1420; 1.56 µg/mL (≈ 2.5 µM) in [13]. Also, the “solubility (insoluble in)” value in the data set “Solubility” is “Insoluble in hexane and water”. Further, the “solubility (soluble in)” value in the data set “Solubility” is “Soluble in alcohols such as methanol, ethanol, propanol and butanol, as well as in dimethyl sulfoxide, dimethylformamide, chloroform, ethyl acetate, acetone and diethyl ether”. In addition, the antibacterial activity entry in data set [11] (compared with thiomarinol and pseudomonic acid A, Table 1) was “at least as good as those of thiomarinol and are, in general, significantly better than those of pseudomonic acid A”. In addition, the “antibacterial activity compared with pseudomonic acid A” value in data set [11] is reported as “significantly more potent antibacterial activity than does pseudomonic acid A”. For the same molecule, the anti-mycoplasmal activity entry in the data set with mycoplasma is “at least as good as those of thiomarinol and are, in general, significantly better than those of pseudomonic acid A”.

Take `CC(=CC(=O)OCCCCC=CCCC(=O)O)CC1OCC(CC2OC2C(C)C(C)O)C(O)C1O` (stereo not drawn) [pseudomonic acid D]: the “antibacterial activity of prior art compounds” value in the data set on bacteria is recorded as “weaker antibacterial activities than do the thiomarinol derivatives of the present invention”.

Consider `CC(=CC(=O)OCCCCCCCCC(=O)O)CC1OCC(CC2OC2C(C)C(C)O)C(O)C1O` (stereo not drawn) [pseudomonic acid A], for which the “antibacterial activity of prior art compounds” value in the data set with bacteria is “weaker antibacterial activities than do the thiomarinol derivatives of the present invention”. For the same molecule, the MIC was greater than 100 µg/mL in data set [1]; 100 µg/mL (≈ 200 µM) in data set [2]; greater than 100 µg/mL with Enterobacter cloacae 963; greater than 100 µg/mL in [3]; 100 µg/mL (≈ 200 µM) in the data set with Escherichia coli 609; greater than 100 µg/mL in data set [4]. The MIC was greater than 100 µg/mL in data set [12]; 0.2 µg/mL (≈ 0.399 µM) in data set [5]; 0.05 µg/mL (≈ 0.0999 µM) in data set [6]; greater than 100 µg/mL in the data set on Serratia marcescens 1184; 100 µg/mL (≈ 200 µM) with Escherichia coli NIHJ; 25 µg/mL (≈ 49.9 µM) in data set [7]. For the same molecule, the MIC in [8] came out at 100 µg/mL (≈ 200 µM); in [9], 0.1 µg/mL (≈ 0.2 µM); in the data set on Salmonella enteritidis, 50 µg/mL (≈ 99.9 µM); against Proteus vulgaris 1420, 0.4 µg/mL (≈ 0.799 µM); in [13] it was 0.39 µg/mL (≈ 0.779 µM).
